From patent EP2167056B1, “TRANSDERMAL AND TRANSMUCOSAL DRUG DELIVERY ENHANCERS” (priority 2007, dated 2008) come the findings set out here.

Series [1] deals with plasma glucose. Put plainly: Intravenous administration of octapinol hydrochloride + insulin, reduction in plasma glucose. The format is in vivo, Sprague Dawley male rats. Conditions: 1% octapinol hydrochloride + 0.2 IE insulin/kg intravenously, after 20 minutes. As for the experimental part: A reduction in plasma glucose of about 40 % was observed after 20 minutes.
(§1) The plasma content of glucose was determined through measurement of the amount NADH formed in accordance with the below reactions. [drawing 4] glucose-6-phosphate + NAD^+ -----> 6-phosphogluconate + NADH + H^+

The nature of series [2]: Franz diffusion cell permeation of hydromorphone hydrochloride with delmopinol analogues (Example 2). Conditions: 5 % hydromorphone hydrochloride in distilled water with 25 % delmopinol analogue. As for the experimental part: The permeation test was carried out using a Franz diffusion cell with a diffusion area of 1.8 cm^2 as in Example 1. […] Penetration with or without addition of different delmopinol analogues was studied in 5 parallel tests (3 cells per test).

The subject of series [3] is plasma glucose. Put plainly: Nasal absorption of insulin with octapinol hydrochloride, reduction in plasma glucose (Example 6). Conditions: for D (%) total reduction in plasma glucose / Maximum reduction in plasma glucose (%): nasal, mean (S.D.), n=6. The format is in vivo, Sprague Dawley male rats. As for the experimental part: Tests on the enhancement effect of octapinol (M1523), i.e.4-(2-propylpentyl)-1- 2-propylpentyl)-1-piperidine-ethanol, a compound according to Formula (I), for nasal absorption of peptides were carried out on Sprague Dawley male rats with an individual weight of 250-300 g. The rats were fasted for 15-17 hours and anaesthetized prior to the tests. Trachea and arteria carotis were catheterized with a polyethylene tube. The peptide used for the tests was insulin.
The rats were divided into 5 groups and were administered through the nostril via a polyethylene tube with • 1 % octapinol hydrochloride (placebo group) • insulin (Actrapid ® Human from NovoNordisk, Denmark) 5 IE/kg body weight in physiological NaCl (control group) • insulin 2.5 IE/kg body weight with 0.02% octapinol hydrochloride (test group) • insulin 2.5 IE/kg body weight with 0.2% octapinol hydrochloride (test group) • insulin 2.5 IE/kg body weight with 1% octapinol hydrochloride (test group) The pH-value was 3.1 in the test solutions. The administration volume per rat was 25-30 µl.
There were 4 rats in the placebo group, 3 rats in the control group and 6 rats in each of the three test groups.
During the initial tests octapinol hydrochloride was administered nasally together with insulin 5 IE/kg body weight. At an early stage, pronounced reductions in plasma glucose with 1% octapinol hydrochloride were noted.
In the control and test groups 150 µl blood was taken from arteria carotis 0, 10, 20, 30, 40, 50, 60, 120, 180 and 240 minutes respectively after administration.
as §1
The change in glucose content was set off against time and the area below the graph (AUC) was calculated with the trapezium method.
The total reduction in plasma glucose (D%) and the maximal reduction in plasma glucose after nasal administration of insulin with octapinol hydrochloride is given in Table 6. The total reduction in plasma glucose (D%) was calculated according to Hirai et al (Int. J. Pharmaceut., 9,173-184: 1981). D % = (AUCc −AUCin)/(AUCc) × 100 [formula] • AUCc= area under the graph for intranasally administered insulin 5 IE/kg body weight in physiological Na Cl (control group) • AUCin= area under the graph for intranasally administered insulin in octapinol solution Table 6

A short description of series [4]: Franz diffusion cell permeation of 3H-labeled TRH (Example 5). The format is in vitro ADME, human.
Description: A human full-skin sample was positioned in the cell with a 0.05 M phosphate buffer solution (pH 6.0) as receiving phase on the "receptor" side of the skin. 180 µl of 5 % thyroid-releasing hormone (TRH) in dist. water with and without the addition of 25% delmopinol hydrochloride was used on the "donor" side of the skin. The TRH was ^3H-labeled. Penetration with and without addition of delmopinol hydrochloride was studied in 2 parallel tests (4 cells per test).
Radioactivity in the receiving phase was read at different time intervals over a one week period.
How the values of series [5] were obtained:
The permeation test was carried out using a Franz diffusion cell with a diffusion area of 1.8 cm^2 as in Example 1. […] 180 µl of 1 % nicotinic acid in distilled water with and without the addition of 25% delmopinol hydrochloride was used on the "donor" side of the skin. The nicotinic acid was ^14C-labeled. Penetration with and without addition of delmopinol hydrochloride was studied in 2 parallel tests (3 cells per test).
Radioactivity in the receiving" phase was read at different time intervals over a one week period. […]

This is another data set of the same source.
The format of series [6] is in vitro ADME, human. As for the experimental part: 180 µl of 1 % mannitol in distilled water with and without the addition of 1, 5, 10 and 25 % delmopinol hydrochloride respectively was used on the "donor" side of the skin. The mannitol was ^3H-labeled.
A very pronounced effect of the penetration enhancer was seen, but only little if any difference between the concentrations 5, 10 and 25 %, as shown in Table 4.

Setting [7] is: insulin 2.5 IE/kg with 0.02 % octapinol hydrochloride.
Setting [8] is: insulin 2.5 IE/kg with 0.2 % octapinol hydrochloride.
Setting [9] is: insulin 2.5 IE/kg with 1 % octapinol hydrochloride.

Like-named read-outs stand apart in the source and are kept apart here.

Take `CCCC(CCC)CC1CCN(CCO)CC1` [M 1523 (octapinol)]: the “reduction in plasma glucose” value in series [1] was “about 40%”. Also, the “Flux (of hydromorphone hydrochloride)” value in series [2] amounted to 13 µg/h/cm^2. Moreover, the “change in plasma glucose level” value in series [3] (1% octapinol hydrochloride alone, nasally, four rats) is “No significant change”. The “reductions in plasma glucose, of the initial plasma glucose value” in series [3] (initial tests: nasal, insulin 5 IE/kg with 1% octapinol hydrochloride) is given as 85 - 90%. Also, the “D (%) total reduction in plasma glucose” value in series [3] (setting [7]) is on record as 3.6 (3.2) %; in series [3] (setting [8]) it was 9.5 (5.3) %; in series [3] (setting [9]) it was 23.8 (5.8) %. The “Maximum reduction in plasma glucose (%)” value in series [3] (setting [7]) is 3.5 (2.9) %; in series [3] (setting [8]) it was 6.5 (3.5) %; in series [3] (setting [9]), 39.1 (11.3) %.

Turning to “thyroid-releasing hormone (TRH) [reference compound]”, in series [4] (5 % TRH in dist. water without enhancer), the “Flux (steady state flux of TRH)” value is 4 ng/h/cm^2.

For the compound `CCCCCCCCCCC1CN(CCCO)CCO1` (stereo not shown) [M 1676], the “Flux (of hydromorphone hydrochloride)” value in series [2] was found to be 19 µg/h/cm^2.

Take `CCCC(CCC)CCCC1COCCN1CCO` (stereo not shown) [delmopinol]: the “Flux (steady state flux of nicotinic acid)” value in series [5] (pH 7.4) is 1.5 µg/h/cm^2. Moreover, the “Flux (steady state flux of TRH)” value in series [4] (pH 6) was found to be 34 ng/h/cm^2. Moreover, for the setting “10 % morphine sulphate in distilled water with 25% delmopinol hydrochloride”, the “steady state flux of morphine sulphate” value is reported as “about 26 µg/h/cm^2”. Besides, the “factor by which permeation of hydromorphone hydrochloride is increased” value (in the presence of 25 % delmopinol versus without) is “about 290”.

`O=C(O)c1cccnc1` [nicotinic acid, reference compound]: in series [5], the “Flux (steady state flux of nicotinic acid)” value came out at 0.15 µg/h/cm^2.

Turning to `CCCC(CCC)CCCC1COCC[N+]1(C)CCO.[Cl-]` (stereo not shown) [M 1713, 4-(2-hydroxyethyl)-4-methyl-3-(4-propylheptyl)-morpholinium chloride], the “Flux (of hydromorphone hydrochloride)” value in series [2] was 4.8 µg/h/cm^2.

As to `OC[C@@H](O)[C@@H](O)[C@H](O)[C@H](O)CO` [mannitol, reference compound], in series [6], the “Flux (of mannitol)” value is 6.6 µg/h/cm^2.
